This note sets out measurements from patent US11986532B2 (Arvinas Operations, Inc., priority 2021, dated 2024).

In the test the target is T1, BCL6 (Homo sapiens, UniProt P41182).
T1 construct: endogenous in cells; host or cells: T47D breast cancer epithelial cells
Briefly: Immunofluorescence protocol for high content imaging of BCL6 (degradation) in T47D cells, 3 days compound treatment. Format: cell-based. To be noted: for Dmax: T47D, read-out: Mean Dmax (%)** category; for DC50: read-out: Mean DC50 (nM)* category. An outline of the steps: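 Read-out: high-content imaging of anti-BCL6 immunofluorescence (Alexa-488 secondary) with CellMask and Hoechst counterstains, 10×, 4 fields/well. Cells had 3 days of compound exposure at 37° C, 5% CO2, 11-point 3-fold series from a final top of 0.1 or 1 μM.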

Structures are written as SMILES. A value given as a limit tells only on which side of the number the result lay.

What is called Dmax is the greatest extent of degradation seen. In general, DC50 refers to the concentration giving 50% degradation. For `CNC(=O)COc1cc2cc(Nc3nc(N4CCC(O[C@H]5C[C@H](N6CCC(c7ccc8c(c7F)CN([C@@H]7CCC(=O)NC7=O)C8=O)CC6)C5)CC4)ncc3Cl)ccc2n(C(C)C)c1=O` [Compound 384, 2-({6-[(5-chloro-2-{4-[(1r,3r)-3-(4-{2-[(3R)-2,6-dioxopiperidin-3-yl]-4-fluoro-1-oxo-2,3-dihydro-1H-isoindol-5-yl}piperidin-1-yl)cyclobutoxy]piperidin-1-yl}pyrimidin-4-yl)amino]-2-oxo-1-(propan-2-yl)-1,2-dihydroquinolin-3-yl}oxy)-N-methylacetamide], the greatest degradation seen (Dmax) was 50 to 70% and the 50% degradation concentration (DC50) is under 10 nM.

Take `CNC(=O)COc1cc2cc(Nc3nc(N4CCC(O[C@H]5C[C@H](N6CCC(c7ccc8c(c7F)CN([C@H]7CCC(=O)NC7=O)C8=O)CC6)C5)CC4)ncc3Cl)ccc2n(C(C)C)c1=O` [Compound 385, 2-({6-[(5-chloro-2-{4-[(1r,3r)-3-(4-{2-[(3S)-2,6-dioxopiperidin-3-yl]-4-fluoro-1-oxo-2,3-dihydro-1H-isoindol-5-yl}piperidin-1-yl)cyclobutoxy]piperidin-1-yl}pyrimidin-4-yl)amino]-2-oxo-1-(propan-2-yl)-1,2-dihydroquinolin-3-yl}oxy)-N-methylacetamide]: the maximal degradation (Dmax) lay in the range of 50 to 70% and the DC50 is under 10 nM.

Turning to `CNC(=O)COc1cc2cc(Nc3nc(N4CCC(O[C@H]5C[C@H](N6CCN(c7c(F)cc8c(c7F)CN(C7CCC(=O)NC7=O)C8=O)CC6)C5)CC4)ncc3Cl)ccc2n(C(C)C)c1=O` (stereo partly shown) [Compound 386, 2-({6-[(5-chloro-2-{4-[(1r,3r)-3-{4-[2-(2,6-dioxopiperidin-3-yl)-4,6-difluoro-1-oxo-2,3-dihydro-1H-isoindol-5-yl]piperazin-1-yl}cyclobutoxy]piperidin-1-yl}pyrimidin-4-yl)amino]-2-oxo-1-(propan-2-yl)-1,2-dihydroquinolin-3-yl}oxy)-N-methylacetamide], the maximal degradation (Dmax) fell in the range of 50 to 70% and the DC50 is under 10 nM.

Consider `CNC(=O)COc1cc2cc(Nc3nc(N4CCC(O[C@H]5C[C@H](N6CCN(c7ccc8c(c7)C(=O)N(C7CCC(=O)NC7=O)C8=O)[C@H](C)C6)C5)CC4)ncc3Cl)ccc2n(C(C)C)c1=O` (stereo partly drawn) [Compound 387, 2-({6-[(5-chloro-2-{4-[(1r,3r)-3-[(3R)-4-[2-(2,6-dioxopiperidin-3-yl)-1,3-dioxo-2,3-dihydro-1H-isoindol-5-yl]-3-methylpiperazin-1-yl]cyclobutoxy]piperidin-1-yl}pyrimidin-4-yl)amino]-2-oxo-1-(propan-2-yl)-1,2-dihydroquinolin-3-yl}oxy)-N-methylacetamide], for which the Dmax lay in the range of 50 to 70% and the DC50 was under 10 nM.

Turning to `CNC(=O)COc1cc2cc(Nc3nc(N4CCC(O[C@H]5C[C@H](N6CCN(c7ccc8c(c7F)CN([C@H]7CCC(=O)NC7=O)C8=O)CC6)C5)CC4)ncc3Cl)ccc2n(C(C)C)c1=O` [Compound 388, 2-({6-[(5-chloro-2-{4-[(1r,3r)-3-(4-{2-[(3S)-2,6-dioxopiperidin-3-yl]-4-fluoro-1-oxo-2,3-dihydro-1H-isoindol-5-yl}piperazin-1-yl)cyclobutoxy]piperidin-1-yl}pyrimidin-4-yl)amino]-2-oxo-1-(propan-2-yl)-1,2-dihydroquinolin-3-yl}oxy)-N-methylacetamide], the Dmax is 50 to 70% and the DC50 is under 10 nM.

Regarding `CNC(=O)COc1cc2c(F)c(Nc3nc(N4CCC(F)(CN5CCC6(CC5)CN(c5ccc7c(c5)CN(C5CCC(=O)NC5=O)C7=O)C6)CC4)ncc3Cl)ccc2n(C(C)C)c1=O` (stereo not shown) [Compound 389, 2-{[6-({5-chloro-2-[4-({2-[2-(2,6-dioxopiperidin-3-yl)-1-oxo-2,3-dihydro-1H-isoindol-5-yl]-2,7-diazaspiro[3.5]nonan-7-yl}methyl)-4-fluoropiperidin-1-yl]pyrimidin-4-yl}amino)-5-fluoro-2-oxo-1-(propan-2-yl)-1,2-dihydroquinolin-3-yl]oxy}-N-methylacetamide], the Dmax is at least 70% and the half-maximal degradation concentration (DC50) was under 10 nM.

Turning to `CNC(=O)COc1cc2c(F)c(Nc3nc(N4CCC(F)(CN5CCC6(CC5)CN(c5ccc7c(c5F)CN(C5CCC(=O)NC5=O)C7=O)C6)CC4)ncc3Cl)ccc2n(C(C)C)c1=O` (stereo not shown) [Compound 390, 2-{[6-({5-chloro-2-[4-({2-[2-(2,6-dioxopiperidin-3-yl)-4-fluoro-1-oxo-2,3-dihydro-1H-isoindol-5-yl]-2,7-diazaspiro[3.5]nonan-7-yl}methyl)-4-fluoropiperidin-1-yl]pyrimidin-4-yl}amino)-5-fluoro-2-oxo-1-(propan-2-yl)-1,2-dihydroquinolin-3-yl]oxy}-N-methylacetamide], the greatest degradation seen (Dmax) was at least 70% and the DC50 is under 10 nM.

For the compound `CNC(=O)COc1cc2cc(Nc3nc(N4CCC(O[C@H]5C[C@H](N6CCN(c7ccc8c(c7)C(=O)N(C7CCC(=O)NC7=O)C8=O)[C@@H](C)C6)C5)CC4)ncc3Cl)ccc2n(C(C)C)c1=O` (stereo partly drawn) [Compound 391, 2-({6-[(5-chloro-2-{4-[(1r,3r)-3-[(3S)-4-[2-(2,6-dioxopiperidin-3-yl)-1,3-dioxo-2,3-dihydro-1H-isoindol-5-yl]-3-methylpiperazin-1-yl]cyclobutoxy]piperidin-1-yl}pyrimidin-4-yl)amino]-2-oxo-1-(propan-2-yl)-1,2-dihydroquinolin-3-yl}oxy)-N-methylacetamide], the greatest degradation seen (Dmax) was at least 70% and the 50% degradation concentration (DC50) was under 10 nM.

For `CNC(=O)COc1cc2cc(Nc3nc(N4CCC(O[C@H]5C[C@H](N6CCN(c7ccc8c(c7F)CN([C@@H]7CCC(=O)NC7=O)C8=O)CC6)C5)CC4)ncc3Cl)ccc2n(C(C)C)c1=O` [Compound 392, 2-({6-[(5-chloro-2-{4-[(1r,3r)-3-(4-{2-[(3R)-2,6-dioxopiperidin-3-yl]-4-fluoro-1-oxo-2,3-dihydro-1H-isoindol-5-yl}piperazin-1-yl)cyclobutoxy]piperidin-1-yl}pyrimidin-4-yl)amino]-2-oxo-1-(propan-2-yl)-1,2-dihydroquinolin-3-yl}oxy)-N-methylacetamide], the Dmax was at least 70% and the 50% degradation concentration (DC50) is under 10 nM.

With `CNC(=O)COc1cc2cc(Nc3nc(N4CCC(O[C@H]5C[C@H](N6CC7(CCN(c8ccc9c(c8F)CN(C8CCC(=O)NC8=O)C9=O)CC7)C6)C5)CC4)ncc3Cl)ccc2n(C(C)C)c1=O` (stereo partly shown) [Compound 393, 2-({6-[(5-chloro-2-{4-[(1r,3r)-3-{7-[2-(2,6-dioxopiperidin-3-yl)-4-fluoro-1-oxo-2,3-dihydro-1H-isoindol-5-yl]-2,7-diazaspiro[3.5]nonan-2-yl}cyclobutoxy]piperidin-1-yl}pyrimidin-4-yl)amino]-2-oxo-1-(propan-2-yl)-1,2-dihydroquinolin-3-yl}oxy)-N-methylacetamide], the greatest degradation seen (Dmax) was at least 70% and the 50% degradation concentration (DC50) was under 10 nM.

Take `CNC(=O)COc1cc2cc(Nc3nc(N4CCC(O[C@H]5C[C@H](N6CCN(c7ccc8c(c7F)CN([C@H]7CCC(=O)NC7=O)C8=O)[C@H](C)C6)C5)CC4)ncc3Cl)ccc2n(C(C)C)c1=O` [Compound 394, 2-({6-[(5-chloro-2-{4-[(1r,3r)-3-[(3R)-4-{2-[(3S)-2,6-dioxopiperidin-3-yl]-4-fluoro-1-oxo-2,3-dihydro-1H-isoindol-5-yl}-3-methylpiperazin-1-yl]cyclobutoxy]piperidin-1-yl}pyrimidin-4-yl)amino]-2-oxo-1-(propan-2-yl)-1,2-dihydroquinolin-3-yl}oxy)-N-methylacetamide]: the Dmax is at least 70% and the 50% degradation concentration (DC50) is under 10 nM.

In the case of `CNC(=O)COc1cc2cc(Nc3nc(N4CCC(O[C@H]5C[C@H](N6CCN(c7ccc8c(c7F)CN([C@@H]7CCC(=O)NC7=O)C8=O)[C@H](C)C6)C5)CC4)ncc3Cl)ccc2n(C(C)C)c1=O` [Compound 395, 2-({6-[(5-chloro-2-{4-[(1r,3r)-3-[(3R)-4-{2-[(3R)-2,6-dioxopiperidin-3-yl]-4-fluoro-1-oxo-2,3-dihydro-1H-isoindol-5-yl}-3-methylpiperazin-1-yl]cyclobutoxy]piperidin-1-yl}pyrimidin-4-yl)amino]-2-oxo-1-(propan-2-yl)-1,2-dihydroquinolin-3-yl}oxy)-N-methylacetamide], the Dmax was at least 70% and the DC50 is under 10 nM.

As for `CNC(=O)COc1cc2cc(Nc3nc(N4CCC(O[C@H]5C[C@H](N6CC[C@@H](c7ccc8c(c7F)CN([C@@H]7CCC(=O)NC7=O)C8=O)C(C)(C)C6)C5)CC4)ncc3Cl)ccc2n(C(C)C)c1=O` [Compound 396, 2-({6-[(5-chloro-2-{4-[(1r,3r)-3-[(4R)-4-{2-[(3R)-2,6-dioxopiperidin-3-yl]-4-fluoro-1-oxo-2,3-dihydro-1H-isoindol-5-yl}-3,3-dimethylpiperidin-1-yl]cyclobutoxy]piperidin-1-yl}pyrimidin-4-yl)amino]-2-oxo-1-(propan-2-yl)-1,2-dihydroquinolin-3-yl}oxy)-N-methylacetamide], the maximal degradation (Dmax) was at least 70% and the DC50 was under 10 nM.

In the case of `CNC(=O)COc1cc2cc(Nc3nc(N4CCC(O[C@H]5C[C@H](N6CCC(c7c(C)cc8c(c7F)CN(C7CCC(=O)NC7=O)C8=O)CC6)C5)CC4)ncc3Cl)ccc2n(C(C)C)c1=O` (stereo partly shown) [Compound 397, 2-({6-[(5-chloro-2-{4-[(1r,3r)-3-{4-[2-(2,6-dioxopiperidin-3-yl)-4-fluoro-6-methyl-1-oxo-2,3-dihydro-1H-isoindol-5-yl]piperidin-1-yl}cyclobutoxy]piperidin-1-yl}pyrimidin-4-yl)amino]-2-oxo-1-(propan-2-yl)-1,2-dihydroquinolin-3-yl}oxy)-N-methylacetamide], the Dmax is at least 70% and the DC50 was under 10 nM.
